The record followed here is US20260283922A1, “Particles of Hydrophobic-Chain-Modified Monosaccharides and Cyclodextrin” (PARIS SCIENCES ET LETTRES, priority 2023, published 2026).

The nature of one data set: Solubility study of ML. The data set is classed as physicochemical. Particulars: without α-CD, before stirring. As for the experimental part:
The solubility study of ML was carried out in water, methanol and methanol/chloroform mixture 1/1 v/v. In 10 mL glass vials, 10 mg of ML were added to 500 μL of solvent and left under magnetic stirring at 300 rpm at 25° C.

A short description of data set [1]: Thermogravimetric analysis. The format is physicochemical. Particulars: α-CD value at 420° C. As for the experimental part: The thermal behavior of ML/α-CD at 5 mg·mL^−1 and 70 mg·mL^−1 respectively and uncomplexed α-CD were studied using thermogravimetric analysis (FIG. 14).

Molecules are shown by their SMILES.

Turning to `CCCCCCCCCCCCCCCCCC(=O)NCCCO[C@H]1O[C@H](CO)[C@@H](O)[C@H](O)[C@@H]1O` [ML, 3-octadecanoylamino-α-D mannopyranoside], the “solubility of ML in water” value in the data set “Solubility study of ML” was “insoluble”.

`OC[C@H]1O[C@@H]2O[C@H]3[C@H](O)[C@@H](O)[C@@H](O[C@H]4[C@H](O)[C@@H](O)[C@@H](O[C@H]5[C@H](O)[C@@H](O)[C@@H](O[C@H]6[C@H](O)[C@@H](O)[C@@H](O[C@H]7[C@H](O)[C@@H](O)[C@@H](O[C@H]1[C@H](O)[C@H]2O)O[C@@H]7CO)O[C@@H]6CO)O[C@@H]5CO)O[C@@H]4CO)O[C@@H]3CO` [α-CD, alpha-cyclodextrin] gave a residual mass percentage in data set [1] of 0%.
